From US20200038399A1, “FORMULATIONS, METHODS, KIT, AND DOSAGE FORMS FOR TREATING BACTERIAL INFECTION” (Motif BioSciences Inc., priority 2016, published 2020)
“And” between values parts separate entries of the source, which are not always exact repeats. Equal entries are not always repeated. Structures can show the parent of a compound that is named as a salt. Where two headings read alike, the source gives them in different places.

Key:
[1] = test system: Staphylococcus aureus, Streptococcus pneumoniae, Haemophilus influenzae, Moraxella catarrhalis and Klebsiella pneumoniae; assay: checkerboard synergy assay with iclaprim, strains pooled; type: cell-based; details: for synergistic potential with iclaprim: checkerboard experiments, all strains
Procedure: The synergistic potential of iclaprim against Gram-positive and Gram-negative bacteria was determined using the checkerboard assay as described in Eliopoulos GM and Moellering, Jr. RC (1991), Antimicrobial combinations, pp. 432-492, in V. Lorian (ed.), Antibiotics in laboratory medicine, 3rd Ed., The Williams & Wilkins Co., Baltimore, the entire disclosure of which is herein incorporated by reference, allowing multiple test concentrations of iclaprim to be assayed in the presence of various concentrations of the other antibiotic in microtiter plates. The same growth media and conditions were used as described in 3.2 below.
Two different dilutions were used for iclaprim depending on the MIC determined for the bacterium. […] Iclaprim and the other antibiotic being tested were also dispensed alone in the last row and in the last column, respectively, as controls.
The Fractional Inhibitory Concentrations (FIC) for each added agent were calculated and used to determine the sum of FIC (ΣFIC) indicative of the synergistic potential of a given combination as described in Veyssier P. (1999), Inhibiteurs de la dihydrofolate reductase, nitrohétérocycles (furanes) et 8-hydroxyquinoleines, pp. 995-1027, in A. Bryskier (ed.), Antibiotiques agents antibatériens et antifongiques, 1st Ed., Ellipses Edition Marketing SA, Paris, the entire disclosure of which is herein incorporated by reference. Synergy was defined whereby the ΣFIC was <0.5, indifference (no synergy nor antagonism) whereby ΣFIC was ≥0.5 but ≤4, and antagonism whereby ΣFIC was >4. Additivity as a special form of indifference was defined whereby the ΣFIC was ≥0.5 but <1, for example as described in Stevens, D L et al. (1998), In vitro antimicrobial effects of various combinations of penicillin and clindamycin against four strains of Streptococcus pyogenes, J. Antimicrob. Chemother. 42: 1266-1268, the entire disclosure of which is herein incorporated by reference.

S. aureus 101 [2] = assay: MIC determination; type: cell-based, Staphylococcus aureus
Method in brief: (§1)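 K. pneumoniae and S. aureus grew in cation-adjusted Mueller-Hinton broth in ambient air. H. influenzae used Haemophilus test medium (MHB, yeast extract, NAD, hematin) and M. catarrhalis used Brain Heart Infusion, both under 5% CO2.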

S. pneumoniae 1/1 [3] = assay: checkerboard synergy assay with iclaprim; type: cell-based, Streptococcus pneumoniae; details: antibiotic in combination with iclaprim
S. aureus 101 [4] = assay: checkerboard synergy assay with iclaprim; type: cell-based, Staphylococcus aureus; details: antibiotic in combination with iclaprim
S. pneumoniae 1/1 [5] = assay: MIC determination; type: cell-based, Streptococcus pneumoniae; details: Streptococcus pneumoniae, read-out: Minimum inhibitory concentrations (MIC)
[6] = test system: Streptococcus pneumoniae ATCC 49619; assay: MIC determination; type: cell-based; details: Streptococcus pneumoniae, read-out: Minimum inhibitory concentrations (MIC)
[7] = test system: Staphylococcus aureus ATCC 25923; assay: MIC determination; type: cell-based; details: Staphylococcus aureus, read-out: Minimum inhibitory concentrations (MIC)
Method in brief: as §1

[8] = test system: Klebsiella pneumoniae ATCC 33495; assay: MIC determination; type: cell-based; details: Klebsiella pneumoniae, read-out: Minimum inhibitory concentrations (MIC)
Method in brief: as §1

[9] = test system: Moraxella catarrhalis RA 21; assay: MIC determination; type: cell-based; details: Moraxella catarrhalis, read-out: Minimum inhibitory concentrations (MIC)
Method in brief: as §1

[10] = test system: Haemophilus influenzae ATCC 49766; assay: MIC determination; type: cell-based; details: Haemophilus influenzae, ATCC49766, 18 h, read-out: Minimum inhibitory concentrations (MIC)
Method in brief: as §1

[11] = test system: Streptococcus pneumoniae ATCC 49619; assay: checkerboard synergy assay with iclaprim; type: cell-based; details: antibiotic in combination with iclaprim; S. pneumoniae 49619
[12] = test system: Staphylococcus aureus ATCC 25923; assay: checkerboard synergy assay with iclaprim; type: cell-based; details: antibiotic in combination with iclaprim; S. aureus 25923
[13] = test system: Klebsiella pneumoniae ATCC 33495; assay: checkerboard synergy assay with iclaprim; type: cell-based; details: antibiotic in combination with iclaprim; K. pneumoniae 33495
[14] = test system: Moraxella catarrhalis RA 21; assay: checkerboard synergy assay with iclaprim; type: cell-based; details: antibiotic in combination with iclaprim; M. catarrhalis RA 21
[15] = test system: Haemophilus influenzae ATCC 49766; assay: checkerboard synergy assay with iclaprim; type: cell-based; details: antibiotic in combination with iclaprim; H. influenzae 49766
[16] = 1% solution in water; cited from earlier work
[17] = water at 20° C.; cited from earlier work
[18] = cited from earlier work
Pneumocystis jirovecii = assay: in vivo Pneumocystis pneumonia model, corticosteroid-treated rats; details: 50 mg/kg/d oral, once a day for 10 days
Procedure: Compound solutions were prepared just before use.
The drugs were given once a day for 10 consecutive days. The final concentration of DMSO in diluted drug solutions was between 1.5 and 15%. Control animals were dosed with sterile water with 15% of DMSO. At the end of the experiment, therapeutic efficacy was assessed by counting P. jirovecii in lung homogenates and comparing the counts with those of the untreated controls. Twenty-four hours after the end of the treatment, animals were sacrificed and the lung homogenized in a Stomacher-400 blender as previously described (European Concerted Action on Pneumocystis Research. Parasitology Today 12: 245-9, 1996, the entire disclosure of which is herein incorporated by reference). Parasite quantitation was performed on air-dried smears stained with toluidine blue 0 (cystic forms) or RAL-555 stains (vegetative, precystic and cystic forms).

[19] = in vivo; cited from earlier work
[20] = Staphylococcus aureus, 101, 18 h; read-out: Minimum inhibitory concentrations (MIC)
[21] = S. pneumoniae 1/1, 18 hours at 37° C., 5% CO2
[22] = ATCC49619, S. pneumoniae 49619, 18 hours at 37° C., 5% CO2
[23] = ATCC25923, S. aureus 25923, 18 hours at 37° C.
[24] = ATCC33495, K. pneumonia 33495, 18 hours at 37° C.
[25] = RA21, M. catarrhalis RA 21, 18 hours at 37° C., 5% CO2
[26] = rat lung, single rat, listed as TMP, 50 mg/kg/day
[27] = single rat, listed as TMP, 50 mg/kg/day

## Nc1ccc(S(=O)(=O)Nc2ncccn2)cc1 [Sulfadiazine]
[1]
  synergistic potential with iclaprim: highly synergistic
[1]; in combination with iclaprim, all the strains tested
  ΣFIC, range over strains: 0.06-1.50
S. aureus 101 [2]; [20]
  MIC: > 128 µg/mL
S. pneumoniae 1/1 [3]
  Σ FIC: 0.28-0.56
S. aureus 101 [4]
  Σ FIC: 0.75-1.13
S. pneumoniae 1/1 [5]; [21]
  MIC: > 128 µg/mL
[6]; [22]
  MIC: > 128 µg/mL
[7]; [23]
  MIC: > 128 µg/mL
[8]; [24]
  MIC: > 128 µg/mL
[9]; [25]
  MIC: > 128 µg/mL
[10]
  MIC: > 128 µg/mL
[11]
  Σ FIC: 0.13-0.53
[12]
  Σ FIC: 0.06-0.53
[13]
  Con (Conclusion): Syn (Synergy (Syn))
  Σ FIC: 0.27-1.50
[14]
  Con (Conclusion): Syn (Synergy (Syn))
  Σ FIC: 0.09-0.50
[15]
  Con (Conclusion): Syn (Synergy (Syn))
  Σ FIC: 0.16-0.53

## COc1cc(Cc2cnc(N)nc2N)c2c(c1OC)OC(C1CC1)C=C2 (centres unmarked) [iclaprim mesylate]
[16]
  pH value: 4.2
[17]
  solubility in water: approximately 10 mg/mL
[18]
  pKa: 7.2

## COc1cc(Cc2cnc(N)nc2N)cc(OC)c1OC [Trimethoprim]
S. aureus 101 [2]; [20]
  MIC: > 128 µg/mL
S. pneumoniae 1/1 [3]
  Σ FIC: 0.56-1.03
Pneumocystis jirovecii; group mean
  Mean % + SD (inhibition of cysts, TBO): 64.2 ± 30.7%
  Mean % + SD (inhibition of total parasites, Giemsa): 78.7 ± 22.6%
Pneumocystis jirovecii; [26]
  Total cysts (TBO): 7.16.10^+7 and 9.36.10^+6 and 1.60.10^+8 and 1.32.10^+7
  Total parasites (Giemsa): 1.06.10^+9 and 5.81.10^+7 and 6.76.10^+8 and 6.38.10^+7
Pneumocystis jirovecii; [27]
  % of inhibition vs Control (total parasites, Giemsa): 51.3% and 97.3% and 69.0% and 97.1%
  % of inhibition vs control (cysts, TBO): 40.6% and 92.2% and 34.9% and 89.0%
S. aureus 101 [4]
  Σ FIC: 1.01-1.50
S. pneumoniae 1/1 [5]; [21]
  MIC: 128 µg/mL
[6]; [22]
  MIC: 8 µg/mL
[7]; [23]
  MIC: 1 µg/mL
[8]; [24]
  MIC: 8 µg/mL
[9]; [25]
  MIC: 64 µg/mL
[10]
  MIC: 0.5 µg/mL
[11]
  Σ FIC: 1.00-1.25
[12]
  Σ FIC: 1.00-1.25
[13]
  Con (Conclusion): Ind (Indifference (Ind))
  Σ FIC: 1.13-1.50
[14]
  Con (Conclusion): Ad (Additivity (Ad))
  Σ FIC: 0.75-1.13
[15]
  Con (Conclusion): Ind (Indifference (Ind))
  Σ FIC: 1.00-1.25
[19]
  t½ (plasma half-life): about 10.1 hours

## Cc1cc(NS(=O)(=O)c2ccc(N)cc2)no1 [Sulfamethoxazole, N1-(5-methyl-3-isoxazolyl)sulfanilamide]
[1]
  synergistic potential with iclaprim: highly synergistic
S. aureus 101 [2]; [20]
  MIC: > 128 µg/mL
S. pneumoniae 1/1 [5]; [21]
  MIC: > 128 µg/mL
[6]; [22]
  MIC: > 128 µg/mL
[7]; [23]
  MIC: > 128 µg/mL
[8]; [24]
  MIC: > 128 µg/mL
[9]; [25]
  MIC: > 128 µg/mL
[10]
  MIC: 128 µg/mL
[13]
  Con (Conclusion): Ad (Additivity (Ad))
[14]
  Con (Conclusion): Syn (Synergy (Syn))
[15]
  Con (Conclusion): Syn (Synergy (Syn))

## C=C(NC(=O)C(=C)NC(=O)c1csc(C2=N[C@@H]3c4csc(n4)[C@H]4NC(=O)c5csc(n5)[C@H]([C@](C)(O)[C@@H](C)O)NC(=O)[C@H]5CSC(=N5)/C(=C/C)NC(=O)[C@H]([C@@H](C)O)NC(=O)c5csc(n5)[C@]3(CC2)NC(=O)[C@H](C)NC(=O)C(=C)NC(=O)[C@H](C)NC(=O)[C@H]([C@@H](C)CC)N[C@@H]2C=Cc3c([C@H](C)O)cc(nc3[C@H]2O)C(=O)O[C@@H]4C)n1)C(N)=O [Thiostrepton]
S. aureus 101 [2]; Staphylococcus aureus, 101, 18 h, read-out: Minimum inhibitory concentrations (MIC)
  MIC: 0.5 µg/mL
S. pneumoniae 1/1 [3]
  Σ FIC: 1.12-1.50
S. aureus 101 [4]
  Σ FIC: 1.50-2.25
S. pneumoniae 1/1 [5]; 1/1, 18 h
  MIC: 0.063 µg/mL
[6]; ATCC49619, 18 h
  MIC: 0.063 µg/mL
[7]; ATCC25923, 18 h
  MIC: 0.5 µg/mL
[8]; ATCC33495, 18 h
  MIC: > 128 µg/mL
[9]; RA21, 18 h
  MIC: 0.5 µg/mL
[10]
  MIC: 32 µg/mL
[11]
  Σ FIC: 1.12-1.50
[12]
  Σ FIC: 1.02-1.50
[13]
  Con (Conclusion): Ind (Indifference (Ind))
  Σ FIC: 1.01-1.50
[14]
  Con (Conclusion): Ind (Indifference (Ind))
  Σ FIC: 1.02-1.50
[15]
  Con (Conclusion): Ind (Indifference (Ind))
  Σ FIC: 1.02-1.50
